{
  "source": "patent US10117919B2",
  "about": "“Methods and materials for generating CD8+ T cells having the ability to recognize cancer cells expressing a HER2/neu polypeptide” (Mayo Foundation for Medical Education and Research, priority 2012, dated 2018)",
  "key": {"[1]": {"tested_on": "immunoproteasome", "assay": "In vitro cleavage of HER-2/neu 19-mer by purified immunoproteasome", "format": "biochemical", "details": "from HER-2/neu 19-mer (364-382)", "experimental": "(§1) The following was performed to determine if E75 is processed from HER-2/neu or HER-2/neu fragments by multi-subunit enzymes referred to as the proteasome and immunoproteasome, which are required for loading of polypeptide onto MHC class I molecules. […] (SEQ ID NO:3), was synthesized. […] The 19-mer was then cleaved using purified 20S proteasome and immunoproteasome."}, "[2]": {"tested_on": "20S proteasome", "assay": "In vitro cleavage of HER-2/neu 19-mer by purified 20S proteasome", "format": "biochemical", "details": "from HER-2/neu 19-mer (364-382)", "experimental": "as §1"}, "[3]": {"tested_on": "20S proteasome and immunoproteasome", "assay": "Processing of longer HER-2/neu polypeptides (19-mer, 23-mer) treated with the proteasomes", "format": "biochemical", "experimental": "as §1"}, "[4]": {"tested_on": "target cells pulsed with polypeptide", "assay": "IFN-γ ELIspot of polypeptide-generated CD8+ T cell lines against polypeptide-pulsed target cells", "format": "cell-based, human"}, "[5]": {"tested_on": "breast cancer cell lines that express varying levels of HER-2/neu", "format": "cell-based, human"}, "[6]": {"tested_on": "breast cancer cell lines", "assay": "Cytotoxic T cell assay: lysis of breast cancer cells by polypeptide-generated CD8+ T cells", "format": "cell-based, human", "details": "compared to CD8+ T cells generated using p369-377", "experimental": "Another in vitro assay was performed to measure lysis of the breast cancer cells by the T cells."}, "[7]": {"tested_on": "HLA-A2 / HLA-ABC restricted T cell reactivity", "assay": "IFN-γ release of generated T cells in presence of neutralizing HLA-A2 or HLA-ABC antibodies", "format": "cell-based, human", "details": "versus control isotype matched antibody"}, "[8]": {"tested_on": "tumor cells", "assay": "Tumor cell lysis by generated T cells in presence of neutralizing HLA-A2 or HLA-ABC antibodies", "format": "cell-based, human"}},
  "data": [
    {"sequence": "FGSLAFLPES (homo sapiens) [HER-2/neu amino acids 371-380]", "values": [
      {"measurement": "Peptide generated by immunoproteasome", "setting": "[1]", "value": "+"},
      {"measurement": "Peptide generated by proteasome", "setting": "[2]", "value": "+"}
    ]},
    {"sequence": "FGSLAFLPESF (homo sapiens) [HER-2/neu amino acids 371-381]", "values": [
      {"measurement": "Peptide generated by immunoproteasome", "setting": "[1]", "value": "+"},
      {"measurement": "Peptide generated by proteasome", "setting": "[2]", "value": "+"}
    ]},
    {"sequence": "AFLPESFD (homo sapiens)", "values": [
      {"measurement": "Peptide generated by immunoproteasome", "setting": "[1]", "value": "+"},
      {"measurement": "Peptide generated by proteasome", "setting": "[2]", "value": "+"}
    ]},
    {"sequence": "SLAFLPESF (homo sapiens)", "values": [
      {"measurement": "Peptide generated by immunoproteasome", "setting": "[1]", "value": "+"},
      {"measurement": "Peptide generated by proteasome", "setting": "[2]", "value": "+"}
    ]},
    {"sequence": "GSLAFLPESF (homo sapiens) [HER-2/neu amino acids 372-381]", "values": [
      {"measurement": "Peptide generated by immunoproteasome", "setting": "[1]", "value": "+"},
      {"measurement": "Peptide generated by proteasome", "setting": "[2]", "value": "+"}
    ]},
    {"sequence": "FAGCKKIFGSL (homo sapiens) [HER-2/neu amino acids 364-374]", "values": [
      {"measurement": "Peptide generated by immunoproteasome", "setting": "[1]", "value": "+"},
      {"measurement": "Peptide generated by proteasome", "setting": "[2]", "value": "+"}
    ]},
    {"sequence": "LAFLPESFD (homo sapiens)", "values": [
      {"measurement": "Peptide generated by immunoproteasome", "setting": "[1]", "value": "+"},
      {"measurement": "Peptide generated by proteasome", "setting": "[2]", "value": "+"}
    ]},
    {"sequence": "GSLAFLPESFD (homo sapiens)", "values": [
      {"measurement": "Peptide generated by immunoproteasome", "setting": "[1]", "value": "+"},
      {"measurement": "Peptide generated by proteasome", "setting": "[2]", "value": "+"}
    ]},
    {"sequence": "SLAFLPESFD (homo sapiens)", "values": [
      {"measurement": "Peptide generated by immunoproteasome", "setting": "[1]", "value": "+"},
      {"measurement": "Peptide generated by proteasome", "setting": "[2]", "value": "+"},
      {"measurement": "Release from 23-mer treated with the proteasomes", "setting": "[3]; 23-mer containing p373-382 as substrate", "value": "released from the 23-mer"},
      {"measurement": "Recognition of polypeptide-pulsed target cells by T cells generated with the polypeptide", "setting": "[4]", "value": "recognized target cells pulsed with either the p373-382 polypeptide or the p369-377 polypeptide"},
      {"measurement": "Recognition of breast cancer cells by CD8+ T cells generated with the polypeptide", "setting": "[5]", "value": "able to recognize the breast cancer cells at much higher levels"},
      {"measurement": "Lysis of breast cancer cell lines by CD8+ T cells generated with the polypeptide", "setting": "[6]", "value": "recognized and lysed all tested breast cancer cell lines at much higher levels"},
      {"measurement": "Reactivity (IFN-γ release) of generated T cells with neutralizing HLA-A2 or HLA-ABC antibody", "setting": "[7]", "value": "markedly suppressed"},
      {"measurement": "Lysis of tumor cells by generated T cells with neutralizing HLA-A2 or HLA-ABC antibody", "setting": "[8]", "value": "blocked lysis of tumor cells"}
    ]},
    {"sequence": "FAGCKKIFGS (homo sapiens)", "values": [
      {"measurement": "Peptide generated by immunoproteasome", "setting": "[1]", "value": "+"},
      {"measurement": "Peptide generated by proteasome", "setting": "[2]", "value": "+"}
    ]},
    {"sequence": "FAGCKKIFGSLAFLPESFD (homo sapiens) [19-mer polypeptide, substrate of the cleavage assay]", "values": [
      {"measurement": "Processing by purified 20S proteasome and immunoproteasome", "setting": "[3]; 19-mer FAGCKKIFGSLAFLPESFD as substrate", "value": "consistently found to be processed into several other shorter polypeptides"}
    ]}
  ]
}
